Assays:
[1] = system: HUVECs; assay: Chemotaxis assay (Transwell); type: cell-based, human; details: inhibitor or antibody present with TMD23
Method: (§1) The chemotactic motility of HUVECs was assayed using Transwell (Costar) with 6.5-mm diameter polycarbonate filters (8-μm pore size). The lower filter surface was coated with 10 μg gelatin (Sigma-Aldrich). Various concentrations of TMD23 in the absence or presence of 10 μg/mL polyclonal rabbit anti-TMD23 antibody or 10 ng/mL vascular endothelial growth factor (VEGF) (R & D Systems, Inc.) in M199 were placed in the lower wells. One hundred mL cell suspension containing 1×10^5 cells was loaded into each of upper well. The chamber was incubated at 37° C. for 4 h. Cells were fixed with methanol and stained with 4′,6′-diamidino-2-phenylindole (DAPI). Chemotaxis was quantified with optical microscopy (Leica) at 100× magnification using MetaMorph imaging software (Universal Imaging Corporation) by counting the cells that migrated to the filter's lower side. Five random fields in each well were counted. Each sample was assayed in triplicate, and assays were repeated three times. To determine the role of extracellular signal-regulated kinase 1/2 (ERK1/2), p38 mitogen-activated protein kinase (MAPK), and phosphatidylinositol 3-kinase (PI3 kinase)-protein kinase B/Akt (Akt) in TMD23-mediated cell migration, assays were performed in the presence of U0126, a MAPK/ERK kinase (MEK) inhibitor, SB 203580, a p38 MAPK inhibitor, and LY 294002, a PI3 kinase inhibitor. Cell viability as determined by trypan blue staining was not altered by treatment. 00126 was purchased from Promega, with SB 203580 and LY 294002 from Calbiochem.
as §1, with “hundred μL” for “hundred mL”, “MAPK/ERK kinase-(MEK)” for “MAPK/ERK kinase (MEK)”, “treatment. U0126” for “treatment. 00126”

[2] = system: HUVECs; assay: In vitro Matrigel angiogenesis assay (tube formation); type: cell-based, human; details: for Effect on the stimulatory effect of TMD23 on HUVEC tube formation: IgG 10 μg/mL, inhibitors 10 μM
Method: (§2) Growth-factor-reduced Matrigel (BD Biosciences) was thawed at 4° C. A total of 200 μL Matrigel was added to wells of a 48-well plate and polymerized 30 min at 37° C. Two hundred μL cell suspension containing various concentrations of VEGF, TMD23, or TMD23 in the presence of polyclonal rabbit anti-TMD23 antibody (10 μg/mL) or various signaling pathway inhibitors were plated onto Matrigel-coated wells at a density of 2.4×10^4 cells/well in M199 containing 10% FBS for 24 h at 37° C. in a 5% CO2 humidified atmosphere. Each concentration was tested in triplicate in the same plate, with wells photographed using a Leica camera (40× magnification). Tube length was quantified by measuring tubes in five randomly chosen fields from each well using MetaMorph software. Experiments were repeated at least three times.
as §2, with “5° k” for “5%”

[3] = system: Matrigel plugs in FVB mice; assay: Murine angiogenesis assay (Matrigel plug); type: in vivo; details: for Appearance of Matrigel plugs, with heparin: day 4, plus heparin (30 U), TMD23 10, 100, or 1,000 ng, bFGF 250 ng, VEGF 50 ng; for Magnitude of angiogenic reaction with heparin versus without: gels supplemented with both angiogenic factor and heparin
Method: To assess angiogenic effects in vivo, growth-factor-reduced liquid Matrigel (0.5 mL) containing heparin (60 U/mL) and various concentrations of TMD23, bFGF or VEGF was subcutaneously injected into FVB mice near the abdominal midline. Matrigel with PBS plus heparin served as the negative control, with bFGF and VEGF plus heparin as the positive control. Four days after injection, mice were sacrificed and Matrigel plugs were surgically removed. For macroscopic analysis of angiogenesis, hemoglobin content in Matrigel was measured using Drabkin reagent 525 (Sigma-Aldrich). For histological analysis, rat anti-mouse CD31 (PECAM-1, platelet endothelial cell adhesion molecule-1) antibody (Pharmingen) was used. The same specimens were used for hematoxylin and eosin (H&E) staining.

[4] = system: Matrigel plugs in FVB mice; assay: Murine angiogenesis assay (Matrigel plug); type: in vivo
[5] = system: human melanoma A2058 cells in Matrigel; assay: Effect of TMD23 on tumor neoangiogenesis; type: in vivo, athymic nude mice; details: 18 days
Method: To assess TMD23 effects on tumor neoangiogenesis, 1×10^6 human melanoma A2058 cells (ATCC® CRL-11147) were mixed with Matrigel (0.5 mL) containing heparin (60 U/mL) and various concentrations of TMD23 and subcutaneously injected into athymic nude mice. Matrigel plugs were harvested after 18 days and frozen in liquid nitrogen. Blood vessels were detected by immunohistochemistry using anti-CD31 antibody as described above. Microvessel density (MVD) was calculated by counting six highly vascularized fields in each section (200× magnification; MetaMorph software).

[6] = system: MMP-1, MMP-2, MMP-3, and MMP-9 in HUVEC conditioned medium; assay: Gelatin and casein zymographies; type: cell-based, human; details: 10 mM EDTA in incubation buffer
Method: (§3) HUVECs were seeded at 80% confluence on 100-mm dishes in M199 medium. After 24 h, cells were rinsed with serum-free M199 twice and incubated in serum-free M199 with various concentrations of TMD23, VEGF (10 ng/mL), or PMA (70 ng/mL) for 12 h. The conditioned medium containing […] secreted proteins was analyzed by gelatin- and casein-based zymographies. The digested area appeared clear on a blue background, indicating the location of matrix metalloproteinase (MMP) activity. To further verify MMP caseinolytic activity, the casein-containing gel was incubated with incubation buffer containing 10 mM EDTA, an inhibitor of MMPs, to observe disappearance of the clear band. Plasminogen activator inhibitor (PAI) activity was measured by titrating samples with increasing amounts of tissue-type plasminogen activator (t-PA) (Boehringer Ingelheim) into a fixed volume of endothelial-cell-conditioned media.
as §3, with “zymographies. Lee O H, et al., Identification of angiogenic properties of insulin-like growth factor II in in vitro angiogenesis models. Brit J. Cancer. 2000; 82:385-391.” for “zymographies.”, “media. Shi G Y., et al., Plasmin and the regulation of tissue-type plasminogen activator biosynthesis in human endothelial cells. […]” for “media.”

[7] = system: human umbilical vein endothelial cells (HUVECs); assay: Cell proliferation assay (BrdU incorporation); type: cell-based; details: BrdU incorporation, FIG. 2A
Method: To evaluate the effect of TMD proteins on DNA synthesis in human umbilical vein endothelial cells (HUVECs), we performed a 5-bromo-2′-deoxyuridine (BrdU) incorporation assay with a commercial quantification kit (Roche Diagnostic GmbH) and manufacturer's protocol. Mitogenic effects induced by TMD proteins were also determined in the presence of polyclonal rabbit anti-TMD23 antibody (prepared by GlycoNex, Inc., Taiwan) that was purified by protein G-Sepharose column (Amersham Pharmacia Biotech AB).
To evaluate the effect of TMD proteins on DNA synthesis in human umbilical vein endothelial cells (HUVECs), a 5-bromo-2′-deoxyuridine (BrdU) incorporation assay were performed with a commercial quantification kit (Roche Diagnostic GmbH) and manufacturer's protocol. Mitogenic effects induced by TMD proteins were also determined in the presence of polyclonal rabbit anti-TMD23 antibody (prepared by GlycoNex, Inc., Taiwan) that was purified by protein G-Sepharose column (Amersham Pharmacia Biotech AB).

[8] = system: PAI activity in conditioned media of HUVECs; assay: Plasminogen activator inhibitor (PAI) activity assay; type: cell-based, human; details: 12 h; 100 or 1000 ng/mL TMD23, 70 ng/mL PMA, 10 ng/mL VEGF
Method: as §3
as §3, with “zymographies. Lee O H, et al., Identification of angiogenic properties of insulin-like growth factor II in in vitro angiogenesis models. Brit J. Cancer. 2000; 82:385-391.” for “zymographies.”, “media. Shi G Y., et al., Plasmin and the regulation of tissue-type plasminogen activator biosynthesis in human endothelial cells. […]” for “media.”

C[S+]([O-])c1ccc(-c2nc(-c3ccncc3)c(-c3ccc(F)cc3)[nH]2)cc1 (stereo not shown) [SB 203580, reference compound]
Effect on the stimulatory effect of TMD23 on HUVEC migration [1]: blocked
Effect on the stimulatory effect of TMD23 on HUVEC tube formation [2]: blocked

basic fibroblast growth factor [bFGF, reference compound]
Appearance of Matrigel plugs, with heparin [3]: bright red
Magnitude of angiogenic reaction with heparin versus without [3]: considerably greater
Appearance of Matrigel plugs, without heparin [4]: pale
Blood vessels in Matrigel plugs (CD31 staining) [5]: significantly more blood vessels
Tumor size developed by Matrigel plugs containing A2058 cells ([5]; compared with A2058 cells alone): bigger

O=C(O)CN(CCN(CC(=O)O)CC(=O)O)CC(=O)O [EDTA, reference compound]
Effect on the caseinolytic MMP-3 band [6]: blocked specifically

TMD2: Recombinant human thrombomodulin fragment, amino acids Ala242-Cys480 of SEQ ID NO: 2, containing six EGF-like structures (D2)
DNA synthesis in HUVECs [7]: stimulated DNA synthesis

CCCCCCCCCCCCCC(=O)O[C@@H]1[C@@H](C)[C@@]2(O)[C@@H](C=C(CO)C[C@]3(O)C(=O)C(C)=C[C@@H]23)[C@@H]2C(C)(C)[C@]12OC(C)=O [PMA]
PAI activity in conditioned media of HUVECs [8]: decreased significantly

COC(=O)[C@@H](N)CCCNC(=N)N[N+](=O)[O-] [L-NAME, N^G-nitro-L-arginine methyl ester]
Effect on the stimulatory effect of TMD23 on HUVEC tube formation [2]: blocked

N#CC(=C(/N)Sc1ccccc1N)/C(C#N)=C(\N)Sc1ccccc1N [U0126, reference compound]
Effect on the stimulatory effect of TMD23 on HUVEC migration [1]: blocked
Effect on the stimulatory effect of TMD23 on HUVEC tube formation [2]: blocked

vascular endothelial growth factor [VEGF, reference compound]
Appearance of Matrigel plugs, with heparin [3]: bright red
Magnitude of angiogenic reaction with heparin versus without [3]: considerably greater
Hemoglobin content of recovered Matrigel plugs ([3]; plus heparin, compared with controls): significantly increased
Appearance of Matrigel plugs, without heparin [4]: pale
PAI activity in conditioned media of HUVECs [8]: decreased significantly
HUVEC tube formation on Matrigel ([2]; 24 h, VEGF 10 ng/mL, TMD23 5 to 250 ng/mL): formed elongated capillary-like structures, with complete networks

From US8293231B2, “Methods and compositions for treating ischemia” (Blue Blood Biotech Corp., priority 2005, dated 2012)
